Legend:
Assay in all cases: Herbicidal effect by foliage and soil treatment
Assay type in all cases: in vivo
Details in all cases: 10 g ai/10a, evaluated after 14 days
[1] = test system: velvetleaf (Abutilon theophrasti)
In short: (§1)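 Post-emergence spray, cotyledon to bifoliate stage; Tween 20/water vehicle, fixed dose per area; greenhouse 19–25 °C; 14 d; visual growth rating vs untreated.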

[2] = test system: sicklepod (Cassia obtusifolia)
In short: as §1

[3] = test system: wild chamomile (Matricaria chamomilla)
In short: as §1

[4] = test system: cleavers (Galium aparine)
In short: as §1

[5] = test system: common blackjack (Bidens pilosa)
In short: as §1

[6] = test system: common chickweed (Stellaria media)
In short: as §1

[7] = test system: black nightshade (Solanum nigrum)
In short: as §1

[8] = test system: redroot pigweed (Amaranthus retroflexus)
In short: as §1

[9] = test system: kediock (Sinapis arvensis)
In short: as §1

[10] = test system: field bindweed (Convolvulus arvensis)
In short: as §1

[11] = test system: ivyleafspeedwell (Veronica hederaefolia)
In short: as §1

| Structure (SMILES) | herbicidal activity rating, AT (Abutilon theophrasti) [1] | herbicidal activity rating, CO (Cassia obtusifolia) [2] | herbicidal activity rating, MC (Matricaria chamomilla) [3] | herbicidal activity rating, GA (Galium aparine) [4] | herbicidal activity rating, BP (Bidens pilosa) [5] | herbicidal activity rating, SM (Stellaria media) [6] | herbicidal activity rating, SN (Solanum nigrum) [7] | herbicidal activity rating, AR (Amaranthus retroflexus) [8] | herbicidal activity rating, SA (Sinapis arvensis) [9] | herbicidal activity rating, CA (Convolvulus arvensis) [10] | herbicidal activity rating, VH (Veronica hederaefolia) [11] |
| --- | --- | --- | --- | --- | --- | --- | --- | --- | --- | --- | --- |
| COc1cc(Oc2cccc(C(F)(F)F)c2)nc(C(=O)NCCSCCF)c1 [Compound I-92, N-{2-(2-fluoroethylmercapto)ethyl}-4-methoxy-6-{3-(trifluoromethyl)phenoxy}-2-pyridine carboxamide] | 3 (percentage of weeds killed was not less than 40% and less than 60%) | 5 (percentage of weeds killed was not less than 80%) | 3 (percentage of weeds killed was not less than 40% and less than 60%) | 5 (percentage of weeds killed was not less than 80%) | 4 (percentage of weeds killed was not less than 60% and less than 80%) | 4 (percentage of weeds killed was not less than 60% and less than 80%) | 5 (percentage of weeds killed was not less than 80%) | 5 (percentage of weeds killed was not less than 80%) | 5 (percentage of weeds killed was not less than 80%) | 4 (percentage of weeds killed was not less than 60% and less than 80%) | 5 (percentage of weeds killed was not less than 80%) |
| CCN(CC)C(=O)c1cc(OC)cc(Oc2cccc(C(F)(F)F)c2)n1 [Compound I-200, N,N-diethyl-4-methoxy-6-{3-(trifluoromethyl)phenoxy}-2-pyridine carboxamide] | 5 (percentage of weeds killed was not less than 80%) | 5 (percentage of weeds killed was not less than 80%) | 4 (percentage of weeds killed was not less than 60% and less than 80%) | 5 (percentage of weeds killed was not less than 80%) | 2 (percentage of weeds killed was not less than 20% and less than 40%) | 5 (percentage of weeds killed was not less than 80%) | 5 (percentage of weeds killed was not less than 80%) | 5 (percentage of weeds killed was not less than 80%) | 5 (percentage of weeds killed was not less than 80%) | 5 (percentage of weeds killed was not less than 80%) | 5 (percentage of weeds killed was not less than 80%) |
| COCCCNC(=O)c1cc(OC)cc(Oc2cccc(C(F)(F)F)c2)n1 [Compound I-75] | 3 (percentage of weeds killed was not less than 40% and less than 60%) | 5 (percentage of weeds killed was not less than 80%) | 4 (percentage of weeds killed was not less than 60% and less than 80%) | 5 (percentage of weeds killed was not less than 80%) | 3 (percentage of weeds killed was not less than 40% and less than 60%) | 5 (percentage of weeds killed was not less than 80%) | 5 (percentage of weeds killed was not less than 80%) | 5 (percentage of weeds killed was not less than 80%) | 5 (percentage of weeds killed was not less than 80%) | 4 (percentage of weeds killed was not less than 60% and less than 80%) | 5 (percentage of weeds killed was not less than 80%) |
| COc1cc(Oc2cccc(C(F)(F)F)c2)nc(C(=O)NCCSCC(F)(F)F)c1 [Compound I-94] | 5 (percentage of weeds killed was not less than 80%) | 5 (percentage of weeds killed was not less than 80%) | 4 (percentage of weeds killed was not less than 60% and less than 80%) | 5 (percentage of weeds killed was not less than 80%) | 4 (percentage of weeds killed was not less than 60% and less than 80%) | 4 (percentage of weeds killed was not less than 60% and less than 80%) | 5 (percentage of weeds killed was not less than 80%) | 5 (percentage of weeds killed was not less than 80%) | 5 (percentage of weeds killed was not less than 80%) | 5 (percentage of weeds killed was not less than 80%) | 5 (percentage of weeds killed was not less than 80%) |
| COc1cc(Oc2cccc(C(F)(F)F)c2)nc(C(=O)NCCCCl)c1 [Compound I-79] | 5 (percentage of weeds killed was not less than 80%) | 5 (percentage of weeds killed was not less than 80%) | 5 (percentage of weeds killed was not less than 80%) | 5 (percentage of weeds killed was not less than 80%) | 5 (percentage of weeds killed was not less than 80%) | 5 (percentage of weeds killed was not less than 80%) | 5 (percentage of weeds killed was not less than 80%) | 5 (percentage of weeds killed was not less than 80%) | 5 (percentage of weeds killed was not less than 80%) | 4 (percentage of weeds killed was not less than 60% and less than 80%) | 5 (percentage of weeds killed was not less than 80%) |
| COc1cc(Oc2cccc(C(F)(F)F)c2)nc(C(=O)NO)c1 [Compound I-96, N-hydroxy-4-methoxy-6-{3-(trifluoromethyl)phenoxy}-2-pyridine carboxamide] | 3 (percentage of weeds killed was not less than 40% and less than 60%) | 5 (percentage of weeds killed was not less than 80%) | 1 (percentage of weeds killed was less than 20%) | 5 (percentage of weeds killed was not less than 80%) | 4 (percentage of weeds killed was not less than 60% and less than 80%) | 5 (percentage of weeds killed was not less than 80%) | 5 (percentage of weeds killed was not less than 80%) | 5 (percentage of weeds killed was not less than 80%) | 5 (percentage of weeds killed was not less than 80%) | 3 (percentage of weeds killed was not less than 40% and less than 60%) | 5 (percentage of weeds killed was not less than 80%) |
| CNC(=S)c1cc(OC)cc(Oc2cccc(C(F)(F)F)c2)n1 [Compound I-47] | 5 (percentage of weeds killed was not less than 80%) | 5 (percentage of weeds killed was not less than 80%) | 3 (percentage of weeds killed was not less than 40% and less than 60%) | 5 (percentage of weeds killed was not less than 80%) | 3 (percentage of weeds killed was not less than 40% and less than 60%) | 4 (percentage of weeds killed was not less than 60% and less than 80%) | 5 (percentage of weeds killed was not less than 80%) | 5 (percentage of weeds killed was not less than 80%) | 5 (percentage of weeds killed was not less than 80%) | 5 (percentage of weeds killed was not less than 80%) | 5 (percentage of weeds killed was not less than 80%) |
| CCNC(=O)c1cc(OC)cc(Oc2cccc(C(F)(F)F)c2)n1 [Compound I-51] | 5 (percentage of weeds killed was not less than 80%) | 5 (percentage of weeds killed was not less than 80%) | 4 (percentage of weeds killed was not less than 60% and less than 80%) | 5 (percentage of weeds killed was not less than 80%) | 3 (percentage of weeds killed was not less than 40% and less than 60%) | 5 (percentage of weeds killed was not less than 80%) | 5 (percentage of weeds killed was not less than 80%) | 5 (percentage of weeds killed was not less than 80%) | 5 (percentage of weeds killed was not less than 80%) | 4 (percentage of weeds killed was not less than 60% and less than 80%) | 5 (percentage of weeds killed was not less than 80%) |
